Measured values: PubChem BioAssay (NCI)
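Values below derive from 48-hour exposures of cells grown in 96-well plates, with endpoints linearly interpolated between the two concentrations bracketing the appropriate inhibition level. GI50: concentration for 50% inhibition of growth. TGI: total growth inhibition.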

Assays:
Test in all cases: NCI tumour cell line growth inhibition, 48 h
786-0 renal = tested on: 786-0 renal
A498 renal = tested on: A498 renal
A549 NSCLC = tested on: A549 NSCLC
ACHN renal = tested on: ACHN renal
BT-549 breast = tested on: BT-549 breast
CAKI-1 renal = tested on: CAKI-1 renal
CCRF-CEM leukemia = tested on: CCRF-CEM leukemia
COLO 205 colon = tested on: COLO 205 colon
DU-145 prostate = tested on: DU-145 prostate
EKVX NSCLC = tested on: EKVX NSCLC
HCC-2998 colon = tested on: HCC-2998 colon
HCT-116 colon = tested on: HCT-116 colon
HCT-15 colon = tested on: HCT-15 colon
HL-60(TB) leukemia = tested on: HL-60(TB) leukemia
HOP-62 NSCLC = tested on: HOP-62 NSCLC
HOP-92 NSCLC = tested on: HOP-92 NSCLC
HS 578T breast = tested on: HS 578T breast
HT29 colon = tested on: HT29 colon
IGROV1 ovarian = tested on: IGROV1 ovarian
K-562 leukemia = tested on: K-562 leukemia
KM12 colon = tested on: KM12 colon
LOX IMVI melanoma = tested on: LOX IMVI melanoma
M14 melanoma = tested on: M14 melanoma
MALME-3M melanoma = tested on: MALME-3M melanoma
MCF7 breast = tested on: MCF7 breast
MDA-MB-231 breast = tested on: MDA-MB-231 breast
MDA-MB-435 = tested on: MDA-MB-435
MDA-MB-468 breast = tested on: MDA-MB-468 breast
MOLT-4 leukemia = tested on: MOLT-4 leukemia
NCI-H226 lung = tested on: NCI-H226 lung
NCI-H23 lung = tested on: NCI-H23 lung
NCI-H460 lung = tested on: NCI-H460 lung
NCI-H522 lung = tested on: NCI-H522 lung
NCI/ADR-RES ovarian = tested on: NCI/ADR-RES ovarian
OVCAR-3 ovarian = tested on: OVCAR-3 ovarian
OVCAR-4 ovarian = tested on: OVCAR-4 ovarian
OVCAR-5 ovarian = tested on: OVCAR-5 ovarian
OVCAR-8 ovarian = tested on: OVCAR-8 ovarian
PC-3 prostate = tested on: PC-3 prostate
RPMI-8226 leukemia = tested on: RPMI-8226 leukemia
RXF 393 renal = tested on: RXF 393 renal
SF-268 CNS = tested on: SF-268 CNS
SF-295 CNS = tested on: SF-295 CNS
SF-539 CNS = tested on: SF-539 CNS
SK-MEL-2 melanoma = tested on: SK-MEL-2 melanoma
SK-MEL-28 melanoma = tested on: SK-MEL-28 melanoma
SK-MEL-5 melanoma = tested on: SK-MEL-5 melanoma
SK-OV-3 ovarian = tested on: SK-OV-3 ovarian
SN12C renal = tested on: SN12C renal
SNB-19 CNS = tested on: SNB-19 CNS
SR leukemia = tested on: SR leukemia
SW-620 colon = tested on: SW-620 colon
T-47D breast = tested on: T-47D breast
TK-10 renal = tested on: TK-10 renal
U251 CNS = tested on: U251 CNS
UACC-257 melanoma = tested on: UACC-257 melanoma
UACC-62 melanoma = tested on: UACC-62 melanoma
UO-31 renal = tested on: UO-31 renal

C[C@H]1CN(C(=O)c2ccc3c(NNC(=O)c4ccncn4)nc4cc(F)c(F)cc4n23)CCN1
GI50 (786-0 renal): 0.879 µM | TGI (786-0 renal): 11.4 µM | GI50 (A498 renal): 19.1 µM | TGI (A498 renal): 34.3 µM | GI50 (A549 NSCLC): 0.773 µM | TGI (A549 NSCLC): 15.6 µM | GI50 (ACHN renal): 0.452 µM | TGI (ACHN renal): 12.2 µM | GI50 (BT-549 breast): 4.06 µM | TGI (BT-549 breast): 85.8 µM | GI50 (CAKI-1 renal): 0.566 µM | TGI (CAKI-1 renal): 27.2 µM | GI50 (CCRF-CEM leukemia): 1.25 µM | TGI (CCRF-CEM leukemia): 8.74 µM | GI50 (COLO 205 colon): 2.32 µM | TGI (COLO 205 colon): 15 µM | GI50 (DU-145 prostate): 1.99 µM | TGI (DU-145 prostate): > 100 µM | GI50 (EKVX NSCLC): 0.871 µM | TGI (EKVX NSCLC): 9.24 µM | GI50 (HCC-2998 colon): 2.14 µM | TGI (HCC-2998 colon): 62.5 µM | GI50 (HCT-116 colon): 0.568 µM | TGI (HCT-116 colon): 22.2 µM | GI50 (HCT-15 colon): 0.18 µM | TGI (HCT-15 colon): 20.1 µM | GI50 (HL-60(TB) leukemia): 1.3 µM | TGI (HL-60(TB) leukemia): 6.27 µM | GI50 (HOP-62 NSCLC): 0.938 µM | TGI (HOP-62 NSCLC): > 100 µM | GI50 (HOP-92 NSCLC): 0.246 µM | TGI (HOP-92 NSCLC): 5.56 µM | GI50 (HS 578T breast): 7.64 µM | TGI (HS 578T breast): > 100 µM | GI50 (HT29 colon): 0.495 µM | TGI (HT29 colon): 16 µM | GI50 (IGROV1 ovarian): 3.29 µM | TGI (IGROV1 ovarian): > 100 µM | GI50 (K-562 leukemia): 1.97 µM | TGI (K-562 leukemia): 32.6 µM | GI50 (KM12 colon): 2.29 µM | TGI (KM12 colon): 54 µM | GI50 (LOX IMVI melanoma): 0.88 µM | TGI (LOX IMVI melanoma): 4.44 µM | GI50 (M14 melanoma): 0.711 µM | TGI (M14 melanoma): 4.5 µM | GI50 (MALME-3M melanoma): 2.57 µM | TGI (MALME-3M melanoma): 9.98 µM | GI50 (MCF7 breast): 2.75 µM | TGI (MCF7 breast): 55.8 µM | GI50 (MDA-MB-231 breast): 3.42 µM | TGI (MDA-MB-231 breast): 49.9 µM | GI50 (MDA-MB-435): 4.83 µM | TGI (MDA-MB-435): > 100 µM | GI50 (MDA-MB-468 breast): 1.51 µM | TGI (MDA-MB-468 breast): 4.54 µM | GI50 (MOLT-4 leukemia): 1.98 µM | TGI (MOLT-4 leukemia): 17.2 µM | GI50 (NCI-H226 lung): 1.49 µM | TGI (NCI-H226 lung): 13 µM | GI50 (NCI-H23 lung): 2 µM | TGI (NCI-H23 lung): > 100 µM | GI50 (NCI-H460 lung): 0.492 µM | TGI (NCI-H460 lung): 12.7 µM | GI50 (NCI-H522 lung): 2.18 µM | TGI (NCI-H522 lung): 20.3 µM | GI50 (NCI/ADR-RES ovarian): 1.24 µM | TGI (NCI/ADR-RES ovarian): 6.73 µM | GI50 (OVCAR-3 ovarian): 3.32 µM | TGI (OVCAR-3 ovarian): 81.1 µM | GI50 (OVCAR-4 ovarian): 2.12 µM | TGI (OVCAR-4 ovarian): 40.1 µM | GI50 (OVCAR-5 ovarian): 2.58 µM | TGI (OVCAR-5 ovarian): 44.4 µM | GI50 (OVCAR-8 ovarian): 1.05 µM | TGI (OVCAR-8 ovarian): 14 µM | GI50 (PC-3 prostate): 1.6 µM | TGI (PC-3 prostate): 30.6 µM | GI50 (RPMI-8226 leukemia): 2.71 µM | TGI (RPMI-8226 leukemia): > 100 µM | GI50 (RXF 393 renal): 2.12 µM | TGI (RXF 393 renal): 12.2 µM | GI50 (SF-268 CNS): 2.17 µM | TGI (SF-268 CNS): > 100 µM | GI50 (SF-295 CNS): 0.418 µM | TGI (SF-295 CNS): 19.1 µM | GI50 (SF-539 CNS): 2.61 µM | TGI (SF-539 CNS): 14.5 µM | GI50 (SK-MEL-2 melanoma): 2.73 µM | TGI (SK-MEL-2 melanoma): 20.1 µM | GI50 (SK-MEL-28 melanoma): 2.92 µM | TGI (SK-MEL-28 melanoma): > 100 µM | GI50 (SK-MEL-5 melanoma): 1.55 µM | TGI (SK-MEL-5 melanoma): 11.1 µM | GI50 (SK-OV-3 ovarian): 1.2 µM | TGI (SK-OV-3 ovarian): 17.2 µM | GI50 (SN12C renal): 2.87 µM | TGI (SN12C renal): > 100 µM | GI50 (SNB-19 CNS): 3.4 µM | TGI (SNB-19 CNS): > 100 µM | GI50 (SR leukemia): 0.444 µM | TGI (SR leukemia): 11.3 µM | GI50 (SW-620 colon): 1.98 µM | TGI (SW-620 colon): > 100 µM | GI50 (T-47D breast): 3.43 µM | TGI (T-47D breast): > 100 µM | GI50 (TK-10 renal): 0.373 µM | TGI (TK-10 renal): 16.8 µM | GI50 (U251 CNS): 0.892 µM | TGI (U251 CNS): > 100 µM | GI50 (UACC-257 melanoma): 3.34 µM | TGI (UACC-257 melanoma): 20.3 µM | GI50 (UACC-62 melanoma): 1.53 µM | TGI (UACC-62 melanoma): 4.56 µM | GI50 (UO-31 renal): 0.284 µM | TGI (UO-31 renal): 5.08 µM
